Values quoted from earlier work in patent US20070264370A1, “Composition and methods for the treatment of joint pain using Angelica gigas Nakai extract and powder as combined with Glucosamine Sulfate, or Chondroitin Sulfate and HCL, or MSM, or aspirin, or Celedrin, and as combinations thereof in powder, pill, capsule, spray, liquid, and gelcap form” (priority 2006, published 2007).

Conditions: in mammal; oral administration in rats (Kim et al. 2003)

For `CC1(C)Oc2cc3oc(=O)ccc3cc2C[C@@H]1O` [decursinol, Decursinol], the “elimination half life (T1/2)” value is listed as “about 3 hours”.
